Results as given in US11806328B2, “Metabolic therapy for wound healing” (University of South Florida, priority 2013, dated 2023).

Assays:
[1] = test system: HDFs; assay: proliferation of HDFs; assay type: cell-based, human
[2] = test system: Young and aged HDFs; assay: scratch migration assay; assay type: cell-based, human; settings: for migrated cells (Dapi staining) versus untreated control: 5 mM BHB 72 hours, 18 hours after scratch
Procedure: Young and aged HDFs were grown to confluence in 0.2% FBS 5 mM glucose DMEM media, cells were treated with or without the presence of 5 mM BHB for 72 hours, cells were scratched with 200 uL yellow pipette tip. After 18 hours, migrated cells were counted using Dapi staining.

[3] = test system: Primary human dermal fibroblasts (HDFs); assay: ROS production (DHE cytosolic, MitoSOX Red mitochondrial) in stressed primary human dermal fibroblasts; assay type: cell-based; settings: for decrease of cytosolic ROS production (DHE) / reduction of mitochondrial ROS production (MitoSOX Red): 5 mM BHB 72 hours, then 100 μM tert-butyl-hydrogen peroxide 3 hrs
Procedure: Primary human dermal fibroblasts (HDFs, passaged 2-8) from young and aged donors (24 to 88 years) were incubated in the absence or presence of BHB for 72 hours prior to stress with 100 μM tert-buytl-hydrogen peroxide for 3 hours. ROS production was measured fluorescently with dihydroethidium (DHE, cytosolic) and MitoSOX Red (mitochondrial) in triplicate, N=6. In the cytosol, aged HDFs produced 28% (p=<0.001)) more ROS basally compared to their young counterparts. When incubated in BHB for 72 hours, ROS production in the young HDFs decreased by 40% (p=<0.0001) and by 41% (p=<0.0001) in the aged. In the mitochondria, aged HDFs produced 27% (p=<0.0001) more ROS at baseline than the young HDFs, consistent with observations in cytosol. […] As such, ketone supplementation is useful against redox stress and augments wound healing, shifting redox homeostasis in HDFs, especially in the elderly. Primary human dermal fibroblasts (HDFs, passaged 2-8) from young and aged donors (24 to 88 years) were incubated in the absence or presence of 5 mM beta-hydroxybutyrate (BHB) for 72 hours. To simulate a wound environment, the cells were then stressed with 100 μM tert-butyl-hydrogen peroxide for 3 hrs. ROS production was measured fluorescently with dihydroethidium (DHE, cytosolic) and Mitosox Red (mitochondrial) in triplicate, N=6. In the cytosol, seen in FIG. 2(A), aged HDFs produced 25% (p=0.003) more ROS basally compared to their young counterparts. This is consistent with the knowledge that aged cells have less antioxidants to mitigate the ROS production in a stressed environment. When incubated in 5 mM BHB for 72 hours, young HDFs ROS production decreased by 40% (p=<0.0001) and aged ROS production decreased by 41% (p=<0.0001). […] When incubated in BHB, ROS production was reduced in the young by 29% (p<0.0001) and in the aged by 51% (p<0.0001) compared to the controls. […] Significance calculated using one-way ANOVA and t-tests on Prism 6 software.

CC(O)CC(=O)O (stereo not drawn) [BHB, beta-hydroxybutyrate]
proliferation [1]: did not significantly change proliferation | migrated cells (Dapi staining) versus untreated control ([2]; aged HDFs): migrated significantly more | migration ([2]; both young and aged HDFs, in words): did increase migration | migrated cells (Dapi staining) versus untreated control ([2]; young HDFs): migrated significantly more | decrease of cytosolic ROS production (DHE) ([3]; aged HDFs): 41% | reduction of mitochondrial ROS production (MitoSOX Red) ([3]; aged HDFs): 51% | decrease of cytosolic ROS production (DHE) ([3]; young HDFs): 40% | reduction of mitochondrial ROS production (MitoSOX Red) ([3]; young HDFs): 29% | cytosolic and mitochondrial ROS production ([3]; young and aged primary human dermal fibroblasts, in words): reduces cytosolic and mitochondrial ROS production
